Test results reported in patent publication US10882856B2 (BeiGene, Ltd., priority 2017, dated 2021).

Key:
[1] = target: T1, cellular TDO2 in HEK293-TDO2 cells (Homo sapiens, UniProt P48775); experiment: 293-TDO2 cell-based assay (Kyn colorimetric); conditions: 48 hours of incubation
T1 construct: expressed in transfected cells; host or cells: HEK293 (ATCC), stably transfected
In short: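 HEK293 cells stably expressing TDO2 (10000/well, phenol red-free DMEM, 10% FBS) were dosed 4 h after plating and incubated 48 h at 37° C. Supernatant Kyn was measured after TCA precipitation by 4-(dimethylamino)benzaldehyde colour at 480 nm. IC50 came from four-parameter logistic fits.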

IDO1 [2] = target: T2, IDO1 (Homo sapiens, UniProt P14902); experiment: IDO1 enzymatic assay; format: biochemical; design: His tag (N); made in house; host or cells: E. coli; conditions: read-out: Enzyme IC50 IDO1
T2 sequence (P14902 whole entry): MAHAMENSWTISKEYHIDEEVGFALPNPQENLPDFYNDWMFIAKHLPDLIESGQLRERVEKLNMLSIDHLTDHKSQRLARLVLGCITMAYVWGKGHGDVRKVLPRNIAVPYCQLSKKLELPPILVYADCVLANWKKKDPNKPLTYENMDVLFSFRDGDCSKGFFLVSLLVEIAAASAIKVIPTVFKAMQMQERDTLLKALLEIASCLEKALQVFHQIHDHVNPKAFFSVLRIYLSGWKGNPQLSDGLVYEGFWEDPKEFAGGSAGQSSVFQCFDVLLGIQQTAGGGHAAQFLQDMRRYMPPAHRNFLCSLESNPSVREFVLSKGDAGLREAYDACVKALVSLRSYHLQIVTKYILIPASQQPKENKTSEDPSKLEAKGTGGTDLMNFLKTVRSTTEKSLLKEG
In short: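 Recombinant IDO1 carrying an N-terminal His tag and purified from E. coli was used at 50 nM with test compound, 1.3 mM D-tryptophan, 5 mM L-ascorbic acid, methylene blue and 0.4 mg/mL catalase in 50 mM potassium phosphate pH 7.5 containing 0.1% BSA. This mixture was incubated at 24 °C for 1.5 hours, after which N'-formylkynurenine formation was followed continuously at 321 nm for 1 hour and activity was taken as the slope. IC50 was derived from the enzyme activity remaining as compound concentration increased.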

IDO1 [3] = target: T2, IDO1; experiment: Hela cell-based IDO1 assay; conditions: Hela cells
In short: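 HeLa cells were seeded at 8000 per well in 96-well plates in phenol red-free DMEM with 10% FBS. After 4 hours, DMSO-diluted compound dilutions were added with IFN-γ (final 100 ng/mL) and 0.4 mM L-Trp, and cells were kept 48 hours at 37 °C, 5% CO2. Supernatant was deproteinised with trichloroacetic acid, and kynurenine was measured at 480 nm after adding 2% 4-(dimethylamino)benzaldehyde. Potency came from four-parameter logistic fits in XLfit.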

T1 sequence (P48775 whole entry): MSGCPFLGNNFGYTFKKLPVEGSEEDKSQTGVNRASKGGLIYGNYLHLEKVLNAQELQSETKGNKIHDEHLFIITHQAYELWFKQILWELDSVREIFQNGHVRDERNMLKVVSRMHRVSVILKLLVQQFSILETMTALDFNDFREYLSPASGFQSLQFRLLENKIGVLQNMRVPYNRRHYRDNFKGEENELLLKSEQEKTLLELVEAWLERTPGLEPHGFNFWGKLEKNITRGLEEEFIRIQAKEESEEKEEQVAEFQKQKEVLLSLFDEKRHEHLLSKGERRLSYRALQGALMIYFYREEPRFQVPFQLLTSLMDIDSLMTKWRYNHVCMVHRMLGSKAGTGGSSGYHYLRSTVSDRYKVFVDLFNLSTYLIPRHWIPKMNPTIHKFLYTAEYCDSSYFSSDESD

Compound	EC50 [1] [nM]	IC50 (IDO1 [2]) [nM]	EC50 (IDO1 [3]) [nM]
OC(c1c(C2CC2)ccn2cncc12)C1CCC(c2ccnc3ccccc23)CC1 (stereo not drawn) [Example C130, (7-cyclopropylimidazo[1,5-a]pyridin-8-yl)(4-(quinolin-4-yl)cyclohexyl)methanol]	> 10000	36	93
OC(c1c(C2CC2)ccn2cncc12)C1CCC(c2ccc(F)c(Cl)c2)CC1 (stereo not drawn) [Example C132, (4-(3-chloro-4-fluorophenyl)cyclohexyl)(7-cyclopropylimidazo[1,5-a]pyridin-8-yl)methanol]	> 10000	120	384
OC(c1c(C2CC2)ccn2cncc12)C1CCC(c2cccc(Cl)c2)CC1 (stereo not drawn) [Example C133, (4-(3-chlorophenyl)cyclohexyl)(7-cyclopropylimidazo[1,5-a]pyridin-8-yl)methanol]	> 10000	88	256
OC(c1c(C2CC2)ccn2cncc12)C1CCN(c2ccccc2)CC1 (stereo not drawn) [Example C136, (7-cyclopropylimidazo[1,5-a]pyridin-8-yl)(1-phenylpiperidin-4-yl)methanol]	> 10000	74	29
OC(c1c(C2CC2)ccn2cncc12)C1CCN(c2ccc(F)cc2)CC1 (stereo not drawn) [Example C137, (7-cyclopropylimidazo[1,5-a]pyridin-8-yl)(1-(4-fluorophenyl)piperidin-4-yl)methanol]	> 10000	79	177
OC(c1c(C2CC2)ccn2cncc12)C1CCN(c2cccc(F)c2)CC1 (stereo not drawn) [Example C138, (7-cyclopropylimidazo[1,5-a]pyridin-8-yl)(1-(3-fluorophenyl)piperidin-4-yl)methanol]	> 10000	67	149
OC(c1c(C2CC2)ccn2cncc12)C1CCN(C2CC2)CC1 (stereo not drawn) [Example C139, (7-cyclopropylimidazo[1,5-a]pyridin-8-yl)(1-cyclopropylpiperidin-4-yl)methanol]	> 10000	890	> 10000
OC(c1c(C2CC2)ccn2cncc12)C1CCN(c2cccc(Cl)c2)CC1 (stereo not drawn) [Example C140, (1-(3-chlorophenyl)piperidin-4-yl)(7-cyclopropylimidazo[1,5-a]pyridin-8-yl)methanol]	> 10000	140	304
OC(c1c(C2CC2)ccn2cncc12)C1CCN(c2ccc(F)c(F)c2)CC1 (stereo not drawn) [Example C141, (7-cyclopropylimidazo[1,5-a]pyridin-8-yl)(1-(3,4-difluorophenyl)piperidin-4-yl)methanol]	> 10000	76	105
COc1ccc(N2CCC(C(O)c3c(C4CC4)ccn4cncc34)CC2)cc1 (stereo not drawn) [Example C142, (7-cyclopropylimidazo[1,5-a]pyridin-8-yl)(1-(4-methoxyphenyl)piperidin-4-yl)methanol]	> 10000	32	267
Oc1ccc(N2CCC(C(O)c3c(C4CC4)ccn4cncc34)CC2)cc1 (stereo not drawn) [Example C143]	> 10000	130	1100
N#Cc1ccc(N2CCC(C(O)c3c(C4CC4)ccn4cncc34)CC2)cc1 (stereo not drawn) [Example C144, 4-(4-((7-cyclopropylimidazo[1,5-a]pyridin-8-yl)(hydroxy)methyl)piperidin-1-yl)benzonitrile]	> 10000	40	748
O=C(O)c1ccc(N2CCC(C(O)c3c(C4CC4)ccn4cncc34)CC2)cc1 (stereo not drawn) [Example C145, 4-(4-((7-cyclopropylimidazo[1,5-a]pyridin-8-yl)(hydroxy)methyl)piperidin-1-yl)benzoic acid]	> 10000	90	> 10000
OC(c1c(C2CC2)ccn2cncc12)C1CCN(c2ccccn2)CC1 (stereo not drawn) [Example C146, (7-cyclopropylimidazo[1,5-a]pyridin-8-yl)(1-(pyridin-2-yl)piperidin-4-yl)methanol]	> 10000	47	2230
OC(c1c(C2CC2)ccn2cncc12)C1CCN(c2ccncc2)CC1 (stereo not drawn) [Example C147, (7-cyclopropylimidazo[1,5-a]pyridin-8-yl)(1-(pyridin-4-yl)piperidin-4-yl)methanol]	> 10000	2300	> 10000
OC(c1c(C2CC2)ccn2cncc12)C1CCN(c2cccnc2)CC1 (stereo not drawn) [Example C148, (7-cyclopropylimidazo[1,5-a]pyridin-8-yl)(1-(pyridin-3-yl)piperidin-4-yl)methanol]	> 10000	74	1300
OC(c1c(C2CC2)ccn2cncc12)C1CCN(c2ccc(F)c3ncccc23)CC1 (stereo not drawn) [Example C149, (7-cyclopropylimidazo[1,5-a]pyridin-8-yl)(1-(8-fluoroquinolin-5-yl)piperidin-4-yl)methanol]	> 10000	40	42
OC(c1c(C2CC2)ccn2cncc12)C1CCN(c2ccnc3ccccc23)CC1 (stereo not drawn) [Example C150, (7-cyclopropylimidazo[1,5-a]pyridin-8-yl)(1-(quinolin-4-yl)piperidin-4-yl)methanol]	> 10000	160	1510
OC(c1c(C2CC2)ccn2cncc12)C1CCN(c2ccnc3ccc(F)cc23)CC1 (stereo not drawn) [Example C151, (7-cyclopropylimidazo[1,5-a]pyridin-8-yl)(1-(6-fluoroquinolin-4-yl)piperidin-4-yl)methanol]	> 10000	35	373
OC(c1c(C2CC2)ccn2cncc12)C1CCN(c2ccc(Cl)c3ncccc23)CC1 (stereo not drawn) [Example C154, (1-(8-chloroquinolin-5-yl)piperidin-4-yl)(7-cyclopropylimidazo[1,5-a]pyridin-8-yl)methanol]	> 10000	36	49
OC(c1c(C2CC2)ccn2cncc12)C1CCN(c2ccc(F)c3cccnc23)CC1 (stereo not drawn) [Example C155, (7-cyclopropylimidazo[1,5-a]pyridin-8-yl)(1-(5-fluoroquinolin-8-yl)piperidin-4-yl)methanol]	> 10000	61	149
OC(c1c(C2CC2)ccc2cncn12)C1CCC(c2ccccc2)CC1 (stereo not drawn) [Example D101, (6-cyclopropylimidazo[1,5-a]pyridin-5-yl)(4-phenylcyclohexyl)methanol]	> 10000	27	100
COc1ccc(C2CCC(C(O)c3c(C4CC4)ccc4cncn34)CC2)cc1 (stereo not drawn) [Example D102, (6-cyclopropylimidazo[1,5-a]pyridin-5-yl)(4-(4-methoxyphenyl)cyclohexyl)methanol]	> 10000	23	74
OC(c1c(C2CC2)ccc2cncn12)C1CCC(c2ccc(Cl)cc2)CC1 (stereo not drawn) [Example D103, (4-(4-chlorophenyl)cyclohexyl)(6-cyclopropylimidazo[1,5-a]pyridin-5-yl)methanol]	> 10000	38	163
OC(c1c(C2CC2)ccc2cncn12)C1CCC(c2ccc(F)cc2)CC1 (stereo not drawn) [Example D104, (6-cyclopropylimidazo[1,5-a]pyridin-5-yl)(4-(4-fluorophenyl)cyclohexyl)methanol]	> 10000	33	44
OC(c1c(C2CC2)ccc2cncn12)C1CCC(c2ccc(OC(F)(F)F)cc2)CC1 (stereo not drawn) [Example D105, (6-cyclopropylimidazo[1,5-a]pyridin-5-yl)(4-(4-trifluoromethoxy)phenylcyclohexyl)methanol]	> 10000	76	869
Oc1ccc(C2CCC(C(O)c3c(C4CC4)ccc4cncn34)CC2)cc1 (stereo not drawn) [Example D106, 4-(4-((6-cyclopropylimidazo[1,5-a]pyridin-5-yl)(hydroxy)methyl)cyclohexyl)phenol]	> 10000	30	68
Oc1ccc([C@H]2CC[C@H]([C@@H](O)c3c(C4CC4)ccc4cncn34)CC2)cc1 [Example D106b, 4-((1R,4r)-4-((R)-(6-cyclopropylimidazo [1,5-a]pyridin-5-yl)(hydroxy)methyl)cyclohexyl)phenol]	> 10000	1100	2580
OC(c1c(C2CC2)ccc2cncn12)C1CCC(c2ccc(C(F)(F)F)nc2)CC1 (stereo not drawn) [Example D107, (6-cyclopropylimidazo[1,5-a]pyridin-5-yl)(4-(6-(trifluoromethyl)pyridin-3-yl)cyclohexyl)methanol]	> 10000	30	1480
OCC(CCl)Oc1ccc(C2CCC(C(O)c3c(C4CC4)ccc4cncn34)CC2)cc1 (stereo not drawn) [Example D108, 3-chloro-2-(4-(4-((6-cyclopropylimidazo[1,5-a]pyridin-5-yl) (hydroxy)methyl)cyclohexyl)phenoxy)propan-1-ol]	> 10000	30	72
